Laboratory results from patent US20240270730A1, “DRG-MDM2-2 FOR USE AS A NOVEL MOUSE DOUBLE MINUTE 2 (MDM2) INHIBITOR” (BAHCESEHIR UNIVERSITESI, priority 2020, published 2024).

Legend:
MDA-MB231 cell lines = experiment: MTT cell viability assay (IC50); type: cell-based; conditions: Homo sapiens, MDA-MB-231; MDA-MB231 cells; single dose of treatment; concentrations 10-9 to 104 M; 570 nm absorbance; FIG. 1; read-out: IC50 (half-maximal inhibitory concentration), MTT cell viability
Method: HCT 116 colon cancer and MDA-MB231 breast cancer cell lines are used in cell culture experiments.
Cells were treated with high-glucose DMEM medium (Biosera) supplemented with 10% FBS (Gibco) and 1× penicillin/streptomycin (Multicell). The assay was designed to contain 10,000 cells for each well of 24-well cell culture plates before being treated with inhibitors.
Compound of formula I was dissolved with DMSO as 20 mM stock. 24 hours later, the solution was diluted in DMEM with 10% FBS and final concentration of vehicle DMSO was 0.5% at maximum. Therefore, the vehicle group included 0.5% DMSO concentration in experiments. Intensive cultivation of cells causes a decrease in proliferation capacity.
The MTT cell viability assay was used to detect values of half-maximal inhibitory concentration (IC50). Different concentrations of compound of formula I ranging between 10-9 to 104 M were tested on MDA-MB231 cell lines with single dose of treatment. 570 nm absorbance values were recorded and IC50 values were calculated by dose response—inhibition curves and nonlinear regression analysis on Graphpad Prism 8 software.

MDM2 protein = MDM2 protein (Homo sapiens, UniProt Q00987); conditions: compared with a natural p53 peptide; cited from earlier work
Sequence of MDM2 protein (Q00987 whole entry, species assumed): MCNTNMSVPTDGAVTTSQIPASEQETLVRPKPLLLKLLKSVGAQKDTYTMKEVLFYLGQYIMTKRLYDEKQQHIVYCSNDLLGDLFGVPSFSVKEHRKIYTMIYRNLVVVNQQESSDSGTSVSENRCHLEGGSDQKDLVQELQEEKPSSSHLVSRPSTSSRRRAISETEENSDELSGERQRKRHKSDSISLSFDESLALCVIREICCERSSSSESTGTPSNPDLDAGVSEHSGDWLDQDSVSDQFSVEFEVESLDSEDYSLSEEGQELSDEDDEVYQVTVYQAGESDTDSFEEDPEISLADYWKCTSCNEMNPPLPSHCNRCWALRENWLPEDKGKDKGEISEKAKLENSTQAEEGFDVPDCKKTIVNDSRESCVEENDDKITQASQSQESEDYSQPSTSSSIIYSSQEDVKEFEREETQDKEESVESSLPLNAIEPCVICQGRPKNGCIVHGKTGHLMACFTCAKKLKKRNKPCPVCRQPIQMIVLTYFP

IC50 (MDA-MB231 cell lines) [nM] | Compound | binding affinity to MDM2 protein relative to natural p53 peptide (MDM2 protein) [fold]
891 | O=C(NCc1nc(-c2ccccc2)no1)NC(Cc1c[nH]c2ccccc12)C(=O)O (centres unmarked) [compound of formula I] | 
 | MI-319 | 500
